Laboratory results published in US20260226066A1, “PGDH INHIBITORS AND METHODS OF MAKING AND USING” (Epirium Bio Inc., priority 2023, published 2026).

Legend:
[1] = biological target: T1, 15-PGDH/HPGD (Homo sapiens, UniProt P15428); assay: hPGDH inhibitor screening biochemical assay; settings: 10 nM enzyme, fluorescence ex/em 340/485 nm
T1 construct: purchased R&D System 5660-DH
T1 sequence (P15428 1-266): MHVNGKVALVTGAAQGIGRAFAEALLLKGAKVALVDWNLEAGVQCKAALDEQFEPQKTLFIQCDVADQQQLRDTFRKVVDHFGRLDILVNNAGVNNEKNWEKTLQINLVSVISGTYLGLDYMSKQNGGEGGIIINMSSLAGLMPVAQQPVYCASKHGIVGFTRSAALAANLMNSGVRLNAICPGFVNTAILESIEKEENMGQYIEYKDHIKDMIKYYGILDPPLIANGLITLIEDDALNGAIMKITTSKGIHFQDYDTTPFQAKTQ
Protocol: A hydroxyprostaglandin dehydrogenase inhibition screening biochemical assay can be performed to assess the synthesized inhibitors provided herein. Provided herein is an exemplary biochemical assay for hPGDH inhibitor screening.
The in vitro biochemical assay can be performed in white, 384 plates in total 20 μl reaction volume consisting of 10 nM of 15-PGDH/HPGD (R&D System #5660-DH), 15 µM Prostaglandin E2 (Sigma, Cat #P5640-10MG) and 0.25 mM β-Nicotinamide adenine dinucleotide sodium salt (Sigma, Cat #N0632-5G) made in reaction buffer (50 mM Tris-HCl, pH 7.5, 0.01% Tween 20) at 10-point dose response curve for test/tool compounds. Briefly, 5 μl (4×) of compounds solution and 5 μl (final concentration, 10 nM) of enzyme solution is added to white 384 well plates and incubated for 10 mins at 37° C. 5 μl (4×) of Prostaglandin E2 and 5 μl (4×) of β-Nicotinamide adenine dinucleotide sodium salt is added to the wells and incubated for 10 mins at room temperature. Fluorescence is recorded at ex/em=340 nm/485 nm.

[2] = tested on: A549; assay: A549 EC50 (cell assay, no method described); assay type: cell-based

| Structure (SMILES) | IC50 [1] | EC50 ([2]; Homo sapiens, A549, A549) | EC50 ([2]; A549) |
| --- | --- | --- | --- |
| COCCC[S+]([O-])c1cnc2c(ccn2-c2cccc(-c3nnc[nH]3)c2)c1 (racemic) [Compound 55] | < 0.1 µM | 0.1 to 1 µM |  |
| CC(C)CC[S+]([O-])c1cnc2c(ccn2-c2cccc(-c3nnc[nH]3)c2)c1 (racemic) [Compound 57] | < 0.1 µM | < 0.1 µM |  |
| CCCC[S+]([O-])c1cnc2c(ccn2-c2cccc(-c3nnc[nH]3)c2)n1 (single isomer, unassigned) [Compound 1A, 2-[butylsulfinyl]-5-[3-(4H-1,2,4-triazol-3-yl)phenyl]pyrrolo[2,3-b]pyrazine] | < 0.1 µM | < 0.1 µM |  |
| CC(C)OC[S+]([O-])c1cnc2c(cnn2-c2cccc(-c3nnc[nH]3)c2)c1 (single isomer, unassigned) [Compound 2A, 1-(3-(4H-1,2,4-triazol-3-yl)phenyl)-5-((isopropoxymethyl)sulfinyl)-1H-pyrazolo[3,4-b]pyridine] | 0.1 to 1 µM |  |  |
| CC(C)OC[S+]([O-])c1cnc2c(cnn2-c2cccc(-c3nnc[nH]3)c2)c1 (single isomer, unassigned) [Compound 2B, 1-(3-(4H-1,2,4-triazol-3-yl)phenyl)-5-((isopropoxymethyl)sulfinyl)-1H-pyrazolo[3,4-b]pyridine] | < 0.1 µM | 0.1 to 1 µM |  |
| [O-][S+](c1cnc2c(cnn2-c2cccc(-c3ccnc(O)c3)c2)c1)C1CCC(F)(F)C1 (single isomer, unassigned) [Compound 3A] | ≥ 1 µM | ≥ 1 µM |  |
| [O-][S+](c1cnc2c(cnn2-c2cccc(-c3ccnc(O)c3)c2)c1)C1CCC(F)(F)C1 (single isomer, unassigned) [Compound 3B] | < 0.1 µM |  | ≥ 1 µM |
| [O-][S+](c1cnc2c(cnn2-c2cccc(-c3ccc(O)nc3)c2)c1)C1CCC(F)(F)C1 (single isomer, unassigned) [Compound 5A] | 0.1 to 1 µM |  | ≥ 1 µM |
| [O-][S+](c1cnc2c(cnn2-c2cccc(-c3ccc(O)nc3)c2)c1)C1CCC(F)(F)C1 (single isomer, unassigned) [Compound 5B] | ≥ 1 µM |  |  |
| [O-][S+](c1cnc2c(cnn2-c2cccc(-c3ccc(O)nc3)c2)c1)C1CCC(F)(F)C1 (single isomer, unassigned) [Compound 5C] | < 0.1 µM |  | 0.1 to 1 µM |
| [O-][S+](c1cnc2c(cnn2-c2cccc(-c3ccc(O)nc3)c2)c1)C1CCC(F)(F)C1 (single isomer, unassigned) [Compound 5D] | < 0.1 µM |  |  |
| [O-][S+](c1cnc2c(cnn2-c2cccc(-c3nnc[nH]3)c2)c1)C1CC(F)(F)C1 (single isomer, unassigned) [Compound 7A] | 0.1 to 1 µM |  |  |
| [O-][S+](c1cnc2c(cnn2-c2cccc(-c3nnc[nH]3)c2)c1)C1CC(F)(F)C1 (single isomer, unassigned) [Compound 7B] | < 0.1 µM | < 0.1 µM |  |
| [O-][S+](c1cnc2c(cnn2-c2cccc(-c3nnc[nH]3)c2)c1)C1CCC(F)(F)C1 (single isomer, unassigned) [Compound 8A] | ≥ 1 µM |  |  |
| [O-][S+](c1cnc2c(cnn2-c2cccc(-c3nnc[nH]3)c2)c1)C1CCC(F)(F)C1 (single isomer, unassigned) [Compound 8B] | 0.1 to 1 µM |  |  |
| [O-][S+](c1cnc2c(cnn2-c2cccc(-c3nnc[nH]3)c2)c1)C1CCC(F)(F)C1 (single isomer, unassigned) [Compound 8C] | < 0.1 µM |  | < 0.1 µM |

| Structure (SMILES) | IC50 [1] | EC50 ([2]; Homo sapiens, A549, A549) | EC50 ([2]; A549) |
| --- | --- | --- | --- |
| [O-][S+](c1cnc2c(cnn2-c2cccc(-c3nnc[nH]3)c2)c1)C1CCC(F)(F)C1 (single isomer, unassigned) [Compound 8D] | < 0.1 µM | < 0.1 µM |  |
| O=C(O)c1ccc(-n2ncc3cc([S+]([O-])C4CC(F)(F)C4)cnc32)cc1 (single isomer, unassigned) [Compound 10A] | 0.1 to 1 µM |  | ≥ 1 µM |
| O=C(O)c1ccc(-n2ncc3cc([S+]([O-])C4CC(F)(F)C4)cnc32)cc1 (single isomer, unassigned) [Compound 10B] | < 0.1 µM |  | 0.1 to 1 µM |
| CC(=O)Nc1ccc(-c2cncc(-n3ncc4cc([S+]([O-])C5CCCC5)cnc43)c2)cc1 (single isomer, unassigned) [Compound 12B] | < 0.1 µM | ≥ 1 µM |  |
| CC(=O)Nc1cccc(-c2cncc(-n3ncc4cc([S+]([O-])C5CCCC5)cnc43)c2)c1 (single isomer, unassigned) [Compound 14A] | < 0.1 µM | < 0.1 µM |  |
| CC(=O)Nc1cccc(-c2cncc(-n3ncc4cc([S+]([O-])C5CCCC5)cnc43)c2)c1 (single isomer, unassigned) [Compound 14B] | 0.1 to 1 µM |  |  |
| CNC(=O)c1cccc(-c2cncc(-n3ncc4cc([S+]([O-])C5CCCC5)cnc43)c2)c1 (single isomer, unassigned) [Compound 16A] | < 0.1 µM |  | < 0.1 µM |
| CNC(=O)c1cccc(-c2cncc(-n3ncc4cc([S+]([O-])C5CCCC5)cnc43)c2)c1 (single isomer, unassigned) [Compound 16B] | < 0.1 µM |  | ≥ 1 µM |
| [O-][S+](c1cnc2c(cnn2-c2cccc(-c3nnc[nH]3)c2)c1)C1CCC1 (single isomer, unassigned) [Compound 18A, 1-(3-(4H-1,2,4-triazol-3-yl)phenyl)-5-(cyclobutylsulfinyl)-1H-pyrazolo[3,4-b]pyridine] | < 0.1 µM |  | ≥ 1 µM |
| [O-][S+](c1cnc2c(cnn2-c2cccc(-c3nnc[nH]3)c2)c1)C1CCC1 (single isomer, unassigned) [Compound 18B, 1-(3-(4H-1,2,4-triazol-3-yl)phenyl)-5-(cyclobutylsulfinyl)-1H-pyrazolo[3,4-b]pyridine] | < 0.1 µM |  | < 0.1 µM |
| [O-][S+](c1cnc2c(cnn2-c2cccc(-c3nnc[nH]3)c2)c1)C1CCCC1 (single isomer, unassigned) [Compound 26B] | 0.1 to 1 µM | 0.1 to 1 µM |  |
| CCCC[S@+]([O-])c1cnc2c(cnn2-c2cccc(-c3nnc[nH]3)c2)c1 (single isomer, unassigned) [Compound 36A, 1-(3-(4H-1,2,4-triazol-3-yl)phenyl)-5-(butylsulfinyl)-1H-pyrazolo[3,4-b]pyridine] | 0.1 to 1 µM |  | ≥ 1 µM |
| CCCC[S+]([O-])c1cnc2c(cnn2-c2cc(F)cc(NC(=O)OCC)c2)c1 (stereo not drawn) [Compound 27B] | ≥ 1 µM |  |  |
| O=S(=O)(c1cnc2c(cnn2-c2ccc(-c3nnc[nH]3)cc2)c1)C1CCOCC1 [Compound 37] | ≥ 1 µM |  |  |
| CCOC(=O)Nc1cncc(-n2ncc3cc(C(=O)CC4CCC4)cnc32)c1 [Compound 42] | < 0.1 µM |  |  |

Continued, values first:

| IC50 [1] | EC50 ([2]; Homo sapiens, A549, A549) | EC50 ([2]; A549) | Structure (SMILES) |
| --- | --- | --- | --- |
| ≥ 1 µM |  |  | COc1cc(-c2cccc(-n3ncc4cc([S+]([O-])C5CCC5)cnc43)c2)ccn1 (single isomer, unassigned) [Compound 93B] |
| ≥ 1 µM |  |  | COCC(C)(C)C[S+]([O-])c1cnc2c(cnn2-c2cccc(-c3nnc[nH]3)c2)c1 (single isomer, unassigned) [Compound 126A] |
| < 0.1 µM |  |  | COCC(C)(C)C[S+]([O-])c1cnc2c(cnn2-c2cccc(-c3nnc[nH]3)c2)c1 (single isomer, unassigned) [Compound 126B] |
| < 0.1 µM |  |  | CCOC(=O)Nc1cncc(-n2ccc3cc([S+]([O-])C4CC4)cnc32)c1 (stereo not drawn) [Compound 67] |
| 0.1 to 1 µM |  |  | COc1ccc(-c2cccc(-n3ncc4cc([S+]([O-])C5CCC5)cnc43)c2)cn1 (stereo not drawn) [Compound 90B] |
| < 0.1 µM |  |  | [O-][S+](c1cnc2c(cnn2-c2cccc(-c3ccnc(N4CCOCC4)c3)c2)c1)C1CCC1 (stereo not drawn) [Compound 91A] |
| 0.1 to 1 µM |  |  | [O-][S+](c1cnc2c(cnn2-c2cccc(-c3ccnc(N4CCOCC4)c3)c2)c1)C1CCC1 (stereo not drawn) [Compound 91B] |
| 0.1 to 1 µM |  |  | Cc1nnc(-c2cccc(-n3ncc4cc([S+]([O-])C5CCC5)cnc43)c2)[nH]1 (stereo not drawn) [Compound 92A] |
| 0.1 to 1 µM |  |  | O=c1cc(-c2cccc(-n3ncc4cc([S+]([O-])C5CCC5)cnc43)c2)cc[nH]1 (stereo not drawn) [Compound 94B] |
| < 0.1 µM |  |  | [O-][S+](c1cnc2c(cnn2-c2cccc(-c3ccc(N4CCOCC4)nc3)c2)c1)C1CCC1 (stereo not drawn) [Compound 95A] |
| 0.1 to 1 µM |  |  | [O-][S+](c1cnc2c(cnn2-c2cccc(-c3ccc(N4CCOCC4)nc3)c2)c1)C1CCC1 (stereo not drawn) [Compound 95B] |
| 0.1 to 1 µM |  |  | COCCC[S+]([O-])c1cnc2c(ccn2-c2cccc(-c3nnc[nH]3)c2)n1 (stereo not drawn) [Compound 103A] |
|  | ≥ 1 µM |  | CC1(O)CC([S+]([O-])c2cnc3c(cnn3-c3cccc(-c4nnc[nH]4)c3)c2)C1 (stereo not drawn) [Compound 107A] |
| < 0.1 µM |  |  | [O-][S+](c1cnc2c(cnn2-c2ccc3nc(N4CCOCC4)nn3c2)c1)C1CC(F)(F)C1 (stereo not drawn) [Compound 117A] |
| 0.1 to 1 µM |  |  | [O-][S+](c1cnc2c(cnn2-c2ccc3nc(N4CCOCC4)nn3c2)c1)C1CC(F)(F)C1 (stereo not drawn) [Compound 117B] |
| 0.1 to 1 µM |  |  | CC(C)CC[S+]([O-])c1cnc2c(cnn2-c2ccc(CCCC(=O)O)c(F)c2)c1 (stereo not drawn) [Compound 127A] |
| < 0.1 µM |  |  | CC(C)CC[S+]([O-])c1cnc2c(cnn2-c2ccc(CCCC(=O)O)c(F)c2)c1 (stereo not drawn) [Compound 127B] |
